# Measurements published in ChEMBL document CHEMBL1201862, “PubChem BioAssay data set” (2004).
#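 Where inhibition never reached the appropriate level, the endpoint shown equals the highest concentration tested. Otherwise, values were interpolated linearly from a five-concentration, 48-hour dose response in 96-well plates. GI50 is the concentration that inhibits growth by half.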 Active and inactive are the calls of the source. Rule as the data show it: active = GI50 up to about 1.1 µM and inactive = higher.
# Tests used:
# Assay in all cases: DTP human tumour cell line panel, 48 h
# SK-MEL-2 = test system: SK-MEL-2
# MOLT-4 = test system: MOLT-4
# A549 = test system: A549
# MDA-MB-435 = test system: MDA-MB-435
# HT-29 = test system: HT-29
# T47D = test system: T47D
# A498 = test system: A498
# HCT-15 = test system: HCT-15
# UO-31 = test system: UO-31
# RXF 393 = test system: RXF 393
# MCF7 = test system: MCF7
# Hs-578T = test system: Hs-578T
# PC-3 = test system: PC-3
# IGROV-1 = test system: IGROV-1
# K562 = test system: K562
# SN12C = test system: SN12C
# LOX IMVI = test system: LOX IMVI
# TK-10 = test system: TK-10
# OVCAR-5 = test system: OVCAR-5
# OVCAR-8 = test system: OVCAR-8
# NCI-H226 = test system: NCI-H226
# OVCAR-4 = test system: OVCAR-4
# SF-268 = test system: SF-268
# UACC-257 = test system: UACC-257
# 786-0 = test system: 786-0
# NCI-H522 = test system: NCI-H522
# SW-620 = test system: SW-620
# SF-295 = test system: SF-295
# HL-60 = test system: HL-60
# CCRF-CEM = test system: CCRF-CEM
# NCI-H23 = test system: NCI-H23
# MDA-MB-231 = test system: MDA-MB-231
# SNB-19 = test system: SNB-19
# HOP-62 = test system: HOP-62
# UACC-62 = test system: UACC-62
# COLO 205 = test system: COLO 205
# CAKI-1 = test system: CAKI-1
# SR = test system: SR
# SK-MEL-28 = test system: SK-MEL-28
# DU-145 = test system: DU-145
# HOP-92 = test system: HOP-92
# SNB-75 = test system: SNB-75
# SK-MEL-5 = test system: SK-MEL-5
# ACHN = test system: ACHN
# BT-549 = test system: BT-549
# HCC 2998 = test system: HCC 2998
# OVCAR-3 = test system: OVCAR-3
# U-251 = test system: U-251
# KM12 = test system: KM12
# HCT-116 = test system: HCT-116
# EKVX = test system: EKVX
# MDA-N = test system: MDA-N
# NCI-H460 = test system: NCI-H460
# Malme-3M = test system: Malme-3M
# NCI/ADR-RES = test system: NCI/ADR-RES
structure (smiles),measurement,setting,value
CC(=O)CCN1CC2CN=NC2(C#N)C1 (stereo not given),GI50,SK-MEL-2,> 100 µM (inactive)
same,GI50,MOLT-4,14.7 µM (inactive)
same,GI50,A549,> 100 µM (inactive)
same,GI50,MDA-MB-435,> 100 µM (inactive)
same,GI50,HT-29,> 100 µM (inactive)
same,GI50,T47D,35.6 µM (inactive)
same,GI50,A498,> 100 µM (inactive)
same,GI50,HCT-15,69 µM
same,GI50,UO-31,> 100 µM (inactive)
same,GI50,RXF 393,94.4 µM (inactive)
same,GI50,MCF7,35.2 µM (inactive)
same,GI50,Hs-578T,1.65 µM (inactive)
same,GI50,PC-3,> 100 µM (inactive)
same,GI50,IGROV-1,> 100 µM (inactive)
same,GI50,K562,6.7 µM (inactive)
same,GI50,SN12C,> 100 µM (inactive)
same,GI50,LOX IMVI,49 µM (inactive)
same,GI50,TK-10,> 100 µM (inactive)
same,GI50,OVCAR-5,> 100 µM (inactive)
same,GI50,OVCAR-8,> 100 µM (inactive)
same,GI50,NCI-H226,20.7 µM (inactive)
same,GI50,OVCAR-4,> 100 µM (inactive)
same,GI50,SF-268,> 100 µM (inactive)
same,GI50,UACC-257,> 100 µM (inactive)
same,GI50,786-0,36.6 µM (inactive)
same,GI50,NCI-H522,1.79 µM (inactive)
same,GI50,SW-620,17 µM (inactive)
same,GI50,SF-295,> 100 µM (inactive)
same,GI50,HL-60,14.3 µM (inactive)
same,GI50,CCRF-CEM,15.9 µM (inactive)
same,GI50,NCI-H23,> 100 µM (inactive)
same,GI50,MDA-MB-231,> 100 µM (inactive)
same,GI50,SNB-19,> 100 µM (inactive)
same,GI50,HOP-62,> 100 µM (inactive)
same,GI50,UACC-62,> 100 µM (inactive)
same,GI50,COLO 205,36.2 µM (inactive)
same,GI50,CAKI-1,0.379 µM (active)
same,GI50,SR,> 100 µM (inactive)
same,GI50,SK-MEL-28,> 100 µM (inactive)
same,GI50,DU-145,> 100 µM (inactive)
same,GI50,HOP-92,22.3 µM (inactive)
same,GI50,SNB-75,> 100 µM (inactive)
same,GI50,SK-MEL-5,> 100 µM (inactive)
same,GI50,ACHN,24.8 µM (inactive)
same,GI50,BT-549,> 100 µM (inactive)
same,GI50,HCC 2998,> 100 µM (inactive)
same,GI50,OVCAR-3,> 100 µM (inactive)
same,GI50,U-251,> 100 µM (inactive)
same,GI50,KM12,> 100 µM (inactive)
same,GI50,HCT-116,34 µM (inactive)
same,GI50,EKVX,> 100 µM (inactive)
same,GI50,MDA-N,75.7 µM (inactive)
same,GI50,NCI-H460,> 100 µM (inactive)
same,GI50,Malme-3M,69.7 µM (inactive)
same,GI50,NCI/ADR-RES,> 100 µM (inactive)
